Source: patent US11919902B2, “Aryl-bipyridine amine derivatives as phosphatidylinositol phosphate kinase inhibitors” (HiberCell, Inc., priority 2017, dated 2024)

What was measured:
[1] = target: T1, GST tagged PIP4KtypeIIA (Homo sapiens, UniProt P48426); assay: ADP-glo kinase assay PIP4K 2A (PIP4KtypeIIA inhibition assay); type: biochemical; details: Table 3; compounds listed under IC50 range headings; 10 uM ATP, 0.5 nM PIP4KIIA
T1 construct: made in house; host or cells: E. coli
T1 sequence (P48426 1-406): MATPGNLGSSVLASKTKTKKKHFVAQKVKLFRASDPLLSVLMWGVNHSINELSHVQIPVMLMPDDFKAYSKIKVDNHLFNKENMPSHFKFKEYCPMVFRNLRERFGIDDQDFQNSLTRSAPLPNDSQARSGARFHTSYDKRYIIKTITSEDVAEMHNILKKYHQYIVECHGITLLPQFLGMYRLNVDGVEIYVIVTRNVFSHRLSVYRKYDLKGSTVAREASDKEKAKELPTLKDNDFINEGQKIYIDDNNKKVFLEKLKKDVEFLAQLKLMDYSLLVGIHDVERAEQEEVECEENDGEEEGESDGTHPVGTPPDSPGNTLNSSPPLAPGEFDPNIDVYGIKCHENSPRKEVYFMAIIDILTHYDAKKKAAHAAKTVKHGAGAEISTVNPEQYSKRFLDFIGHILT
Excerpt: GST tagged PIP4KtypeIIA and B enzymes were overexpressed in E. Coli and purified to >80% homogeneity. Phosphatidyl inositol-5-phosphate (PI5P, Cat. #850152, Avanti Polar Lipids Inc.) was used as the lipid substrate and phosphatidyl ethanolamine (DOPE 18:1, Cat. #850725, Avanti Polar Lipids Inc.) was used as the carrier lipid for assays. Ultrapure ATP and GTP was purchased from Bellbrooke Labs. ADP Glo reagents were obtained from Promega. Transcreener FI reagent was obtained from Bellbrooke labs.
1. HEPES buffer mix: 200 mM HEPES pH 7.4, 50 mM MgCl2, 0.05% v/v triton×100
2. HNE buffer: 20 mM HEPES, pH 7.4, 100 mM NaCl, 0.5 mM EGTA
3. H:E buffer: 30 mM HEPES, pH 7.4, 1 mM EGTA
Enzyme preparation: GST-tagged PIP4KtypeIIA (5 uL, 1.43 mg/mL) was diluted (1:10) to 50 uL using HNE buffer. From the 1:10 diluted stock, a 6.4 uL aliquot was diluted further to 5 mL using HNE buffer to yield 5× enzyme stock (2.5 nM).
Lipid Preparation: In a 10 mL pyrex glass vial, lug of PI5P and lug of DOPE were suspended in 2.5 mL of HEPES buffer mix and 2.5 mL of H:E buffer. The contents were mixed and sonicated for 3 min to yield a translucent lipid stock.
Compound Preparation: Compounds were stored as 5 mM stocks in neat DMSO as room temperature in glass vials. 5 mM stocks were diluted to 2 mM and then serially diluted (3×) in neat DMSO in 96 well polypropylene plates. From the serially diluted stocks, 3 uL was delivered into 250 uL of 25% DMSO (in water) to generate 5× compound stocks. Typically, the highest compound conc. was 24 uM.
The assay volume was kept at 25 uL. To each well of the reaction plate, 10 uL of lipid stock (1:1 ratio PI5P:DOPE) was delivered. This was followed by the addition of 5 uL of compound in 25% DMSO. Then, to each well, 5 uL of 2.5 nM (5×) typeIIA enzyme was delivered. The contents were mixed well and incubated for 1 h at 27 C. After 1 h, reaction was initiated by adding 5 uL of 50 uM ATP and the contents were mixed well with a multi-channel pipetteman. The final concentration of the reagents are as follows: 50 mM HEPES, pH 7.3, 10 mM MgCl2, 20 mM NaCl, 0.01% v/v triton-X100, 5% DMSO, 10 uM ATP, 80 uM (2 ug) PI5P, 2 ug DOPE, and 0.5 nM PIP4KIIA. Typically, the highest conc. of compounds was 4.8 uM and the lowest conc. was 0.
After 1 hr, the reaction was quenched by adding 25 uL of ADP Glo reagent. The contents were incubated for 1 hr. Afterwards, 50 uL of kinase detection reagent was delivered. The contents were incubated for another hour. The luminescence was read using Molecular Devices Paradigm plate reader. […] The blanks were averaged and subtracted from all other wells. Using a calibration curve, RLU was converted to uM ADP (product). IC50 was calculated by plotting the residual activity (expressed as % No inhibitor control) vs. log [Inh. conc.]

[2] = target: T2, GST tagged PIP4KtypeIIB (Homo sapiens, UniProt P78356); assay: Trans-FI P kinase assay PIP4K2B (PIP4KtypeIIB inhibition assay); type: biochemical; details: Table 4; compounds listed under IC50 range headings; 100 uM GTP, 5 nM PIP4KIIB; read-out: Trans-FI P kinase assays: PIP4K2B IC50
T2 construct: made in house; host or cells: E. coli
T2 sequence (P78356 1-416): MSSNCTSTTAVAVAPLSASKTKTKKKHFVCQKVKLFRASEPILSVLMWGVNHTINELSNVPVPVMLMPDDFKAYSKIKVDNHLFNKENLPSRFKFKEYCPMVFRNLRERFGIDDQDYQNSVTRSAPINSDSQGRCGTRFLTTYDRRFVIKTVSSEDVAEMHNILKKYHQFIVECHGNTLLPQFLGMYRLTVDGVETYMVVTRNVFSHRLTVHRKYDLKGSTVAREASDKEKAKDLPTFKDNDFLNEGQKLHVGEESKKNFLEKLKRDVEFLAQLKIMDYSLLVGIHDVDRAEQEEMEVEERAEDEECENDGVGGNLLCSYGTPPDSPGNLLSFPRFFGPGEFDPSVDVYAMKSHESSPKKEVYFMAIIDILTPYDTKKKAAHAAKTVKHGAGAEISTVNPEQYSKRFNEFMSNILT
Outline: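 Purified GST-PIP4KIIB (5 nM final), 1 h preincubation with compound at 27 C, then 2 h reaction with 100 uM GTP and 80 uM PI5P plus DOPE carrier lipid in pH 7.3 HEPES/MgCl2/Triton buffer with 5% DMSO. GDP read by Transcreener FI fluorescence against a calibration curve; IC50 from % no-inhibitor activity vs log concentration.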

Cc1c(-c2ccc(N3CCCC3=O)cc2)cncc1-c1cn(C)c2ncc([C@@H](C)O)cc12 (single isomer, unassigned) [196(R)]
IC50 [1]: 100 to 1000 nM
IC50 [2]: 100 to 1000 nM

Cc1c(-c2ccc(N3CCCC3=O)cc2)cncc1-c1cn(C)c2ncc([C@H](C)O)cc12 (single isomer, unassigned) [196(S)]
IC50 [1]: 100 to 1000 nM
IC50 [2]: 100 to 1000 nM

Cc1cc(N2CCCC2=O)ccc1-c1cncc(-c2cn(C)c3ncc([C@@H](C)O)cc23)c1 (single isomer, unassigned) [197(R)]
IC50 [1]: 100 to 1000 nM
IC50 [2]: 1000 to 2500 nM

Cc1cc(N2CCCC2=O)ccc1-c1cncc(-c2cn(C)c3ncc([C@H](C)O)cc23)c1 (single isomer, unassigned) [197(S)]
IC50 [1]: 100 to 1000 nM
IC50 [2]: 1000 to 2500 nM

CN(C)C(=O)c1ccc(-c2cc(-c3ccnc4[nH]c(C(=O)NCCN)cc34)cnc2N)nc1 [Example 133, 4-(2′-amino-5-(dimethylcarbamoyl)-[2,3′-bipyridin]-5′-yl)-N-(2-aminoethyl)-1H-pyrrolo[2,3-b]pyridine-2-carboxamide]
IC50 [1]: 1000 to 2500 nM
IC50 [2]: 100 to 1000 nM

CN(C)C(=O)c1ccc(-c2cc(-c3ccnc4[nH]c(C(=O)NC5CCOCC5)cc34)cnc2N)nc1 [Example 137, 4-(2′-amino-5-(dimethylcarbamoyl)-[2,3′-bipyridin]-5′-yl)-N-(tetrahydro-2H-pyran-4-yl)-1H-pyrrolo[2,3-b]pyridine-2-carboxamide]
IC50 [1]: 100 to 1000 nM
IC50 [2]: 10 to 100 nM

CN(C)C(=O)c1ccc(-c2cc(-c3ccnc4[nH]c(C(=O)N5CCCC5)cc34)cnc2N)nc1 [Example 141, 2′-amino-N,N-dimethyl-5′-(2-(pyrrolidine-1-carbonyl)-1H-pyrrolo[2,3-b]pyridin-4-yl)-[2,3′-bipyridine]-5-carboxamide]
IC50 [1]: 100 to 1000 nM
IC50 [2]: 10 to 100 nM

CN(C)C(=O)c1ccc(-c2cc(-c3ccnc4[nH]c(C(=O)N5CCS(=O)(=O)CC5)cc34)cnc2N)nc1 [Example 142, 2′-amino-5′-(2-(1,1-dioxidothiomorpholine-4-carbonyl)-1H-pyrrolo[2,3-b]pyridin-4-yl)-N,N-dimethyl-[2,3′-bipyridine]-5-carboxamide]
IC50 [1]: 100 to 1000 nM
IC50 [2]: 100 to 1000 nM

CN(C)C(=O)c1ccc(-c2cc(-c3ccnc4[nH]c(C(N)=O)cc34)cnc2N)nc1 [Example 143, 4-(2′-amino-5-(dimethylcarbamoyl)-[2,3′-bipyridin]-5′-yl)-1H-pyrrolo[2,3-b]pyridine-2-carboxamide]
IC50 [1]: 100 to 1000 nM
IC50 [2]: 10 to 100 nM

CN(C)C(=O)c1ccc(-c2cc(-c3ccnc4[nH]c(C(=O)NCC(N)=O)cc34)cnc2N)nc1 [Example 144, N-(2-amino-2-oxoethyl)-4-(2′-amino-5-(dimethylcarbamoyl)-[2,3′-bipyridin]-5′-yl)-1H-pyrrolo[2,3-b]pyridine-2-carboxamide]
IC50 [1]: 100 to 1000 nM
IC50 [2]: 10 to 100 nM

CN(C)C(=O)c1ccc(-c2cc(-c3ccnc4[nH]c(C(=O)NCC(=O)O)cc34)cnc2N)nc1 [Example 145, (4-(2′-amino-5-(dimethylcarbamoyl)-[2,3′-bipyridin]-5′-yl)-1H-pyrrolo[2,3-b]pyridine-2-carbonyl)glycine]
IC50 [1]: 100 to 1000 nM
IC50 [2]: 100 to 1000 nM

CN(C)C(=O)c1ccc(-c2cc(-c3ccnc4[nH]c(C(=O)NC5COC5)cc34)cnc2N)nc1 [Example 146, 4-(2′-amino-5-(dimethylcarbamoyl)-[2,3′-bipyridin]-5′-yl)-N-(oxetan-3-yl)-1H-pyrrolo[2,3-b]pyridine-2-carboxamide]
IC50 [1]: 100 to 1000 nM
IC50 [2]: 10 to 100 nM

CN(C)C(=O)c1ccc(-c2cc(-c3ccnc4[nH]c(C(=O)N5CC6(COC6)C5)cc34)cnc2N)nc1 [Example 147, 5′-(2-(2-oxa-6-azaspiro[3.3]heptane-6-carbonyl)-1H-pyrrolo[2,3-b]pyridin-4-yl)-2′-amino-N,N-dimethyl-[2,3′-bipyridine]-5-carboxamide]
IC50 [1]: 100 to 1000 nM
IC50 [2]: 10 to 100 nM

CN(C)C(=O)c1ccc(-c2cc(-c3ccnc4[nH]c(C(=O)NC5CCNC5=O)cc34)cnc2N)nc1 (stereo not shown) [Example 149, 4-(2′-amino-5-(dimethylcarbamoyl)-[2,3′-bipyridin]-5′-yl)-N-(2-oxopyrrolidin-3-yl)-1H-pyrrolo[2,3-b]pyridine-2-carboxamide]
IC50 [1]: 1000 to 2500 nM
IC50 [2]: 10 to 100 nM

CN(C)C(=O)c1ccc(-c2cc(-c3ccnc4[nH]c(C(=O)NCCc5ncc[nH]5)cc34)cnc2N)nc1 [Example 150, N-(2-(1H-imidazol-2-yl)ethyl)-4-(2′-amino-5-(dimethylcarbamoyl)-[2,3′-bipyridin]-5′-yl)-1H-pyrrolo[2,3-b]pyridine-2-carboxamide]
IC50 [1]: 100 to 1000 nM
IC50 [2]: 10 to 100 nM

CCc1ccc2c(c1)N(c1ccc(-c3cncc(-c4ccnc5c4cc4n5CCN(C)C4=O)c3)cc1)C(=O)C2 [Example 151, 4-(5-(4-(6-ethyl-2-oxoindolin-1-yl)phenyl)pyridin-3-yl)-7-methyl-8,9-dihydropyrido[3′,2′:4,5]pyrrolo[1,2-a]pyrazin-6 (7H)-one]
IC50 [1]: > 5000 nM
IC50 [2]: > 5000 nM

Cc1c(-c2ccc(N3CCCC3=O)cc2)cncc1-c1cn(C)c2ncc(C(C)O)cc12 (stereo not shown) [Example 196, 1-(4-(5-(5-(1-hydroxyethyl)-1-methyl-1H-pyrrolo[2,3-b]pyridin-3-yl)-4-methylpyridin-3-yl)phenyl)pyrrolidin-2-one]
IC50 [1]: 100 to 1000 nM

Cc1cc(N2CCCC2=O)ccc1-c1cncc(-c2cn(C)c3ncc(C(C)O)cc23)c1 (stereo not shown) [Example 197, 1-(4-(5-(5-(1-hydroxyethyl)-1-methyl-1H-pyrrolo[2,3-b]pyridin-3-yl)pyridin-3-yl)-3-methylphenyl)pyrrolidin-2-one]
IC50 [1]: 100 to 1000 nM
IC50 [2]: 100 to 1000 nM

C[C@@H]1CC(=O)N(c2ccc(-c3cncc(-c4ccnc5c4cc4n5CCN(C)C4=O)c3)cc2)C1 [Example 198, (R)-7-methyl-4-(5-(4-(4-methyl-2-oxopyrrolidin-1-yl)phenyl)pyridin-3-yl)-8,9-dihydropyrido[3′,2′:4,5]pyrrolo[1,2-a]pyrazin-6(7H)-one]
IC50 [1]: 100 to 1000 nM
IC50 [2]: 10 to 100 nM
